pIC50: −log10 of the molar value.
Key:
[1] = Stability observed during preparation; format: physicochemical; settings: isolated compound; acid, base, water vapor
Method: (1R,3R,4R)-5-amino-2-methylcyclohexanol hydrochloride (57 mg, 0.342 mmol) and DIEA (132 mg, 1.026 mmol) were added to a solution of compound T041-3 (100 mg, 0.342 mmol) in isopropanol (3 mL) at room temperature with stirring. After stirring at room temperature for 3 h, the reaction was completed. The reaction mixture was added with water and extracted with ethyl acetate, and the organic phase was washed with saturated brine and dried over anhydrous sodium sulfate. The reaction mixture was concentrated under reduced pressure, purified by preparative high performance liquid chromatography (ammonium bicarbonate method) and lyophilized to give 40 mg of a white solid with a yield of 34%.

JNK1 kinase = molecular target: T1, JNK1 kinase (Homo sapiens, UniProt P45983); assay: JNK1 activity screening (time-resolved fluorometric HTRF kinase assay); format: biochemical; settings: enzymatic assay, activity level
T1 construct: purchased Carna Biosciences 04-163

[2] = system: RAW264.7 phosphorylated c-Jun (Ser63); assay: RAW264.7 phosphorylated c-Jun whole cell assay; format: cell-based; settings: Mus musculus; cytological assay, activity level; lipopolysaccharide-activated RAW264.7 cells, phospho-c-Jun (Ser63) ELISA
How it was run: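 Mouse RAW264.7 macrophages (2×10^5/well) were pretreated with compound for 30 min (0.2% DMSO), then stimulated with lipopolysaccharide for 1 h. Phospho-c-Jun (Ser63) in whole-cell lysates was quantified by sandwich ELISA.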

T1 sequence (P45983 whole entry): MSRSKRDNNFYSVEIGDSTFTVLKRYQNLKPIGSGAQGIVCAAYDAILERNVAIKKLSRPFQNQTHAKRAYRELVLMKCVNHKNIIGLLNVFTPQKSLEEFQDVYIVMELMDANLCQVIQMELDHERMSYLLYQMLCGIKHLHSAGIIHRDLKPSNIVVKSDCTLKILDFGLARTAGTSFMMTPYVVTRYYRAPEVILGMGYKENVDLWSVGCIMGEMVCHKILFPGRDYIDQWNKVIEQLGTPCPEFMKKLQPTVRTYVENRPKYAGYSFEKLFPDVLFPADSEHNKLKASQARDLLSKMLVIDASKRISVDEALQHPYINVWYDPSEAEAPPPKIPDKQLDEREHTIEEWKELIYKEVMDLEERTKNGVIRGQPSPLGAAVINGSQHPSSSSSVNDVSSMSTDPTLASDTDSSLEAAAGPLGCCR

| pIC50 (JNK1 kinase) | pIC50 [2] | Structure (SMILES) | stability of the compound [1] |
| --- | --- | --- | --- |
| < 6.00 | < 6.00 | CS(=O)(=O)CCn1nccc1Nc1ccnc(N[C@H]2CC[C@H](O)CC2)n1 [Compound T038, (1R,4R)-4-((4-((1-(2-(methylsulfonyl)ethyl)-1H-pyrazol-5-yl)amino)pyrimidin-2-yl)amino)cyclohexan-1-ol] |  |
| < 6.00 | < 6.00 | C[C@@H]1CC[C@@H](Nc2nc(NC(C)(C)C)ncc2-n2ccnc2)C[C@H]1O [Compound T034, (1R,2R,5R)-5-((2-(ter-butylamino)-5-(1H-imidazol-1-yl)pyrimidin-4-yl)amino)-2-methylcyclohex-1-ol] |  |
| > 7.00 | > 7.00 | C[C@@H]1CC[C@@H](Nc2nc(Nc3ccc(S(C)(=O)=O)cc3)ncc2C(N)=O)C[C@H]1O [Compound T072, 4-(((1R,3R,4R)-3-hydroxy-4-methylcyclohexyl)amino)-2-((4-(methylsulfonyl)phenyl)amino) pyrimidine-5-carboxamide] |  |
| 6.00 to 6.30 | < 6.00 | C[C@@H]1CC[C@@H](Nc2nc(N3CCOCC3)ncc2C(N)=O)C[C@H]1O [Compound T022, 4-(((1R,3R,4R)-3-hydroxy-4-methylcyclohexyl)amino)-2-morpholinopyrimidine-5-carboxamide] |  |

| Structure (SMILES) | pIC50 (JNK1 kinase) | pIC50 [2] | stability of the compound [1] |
| --- | --- | --- | --- |
| C[C@@H]1CC[C@@H](Nc2nc(OC(C)(C)C)ncc2Br)C[C@H]1O [Compound T041, (1R,2R,5R)-5-((5-bromo-2-(tert-butoxy)pyrimidin-4-yl)amino)-2-methylcyclohexan-l-ol] | 6.00 to 6.30 | < 6.00 | unstable due to susceptibility to acid, base, water vapor and the like |
| C[C@@H]1CC[C@@H](Nc2nc(OC(C)(C)C)ncc2C(N)=O)C[C@H]1O [Compound T043, 2-(tert-butoxy)-4-(((1R,3R,4R)-3-hydroxy-4-methylcyclohexyl)amino) pyrimidine-5-carboxamide] | 6.00 to 6.30 | < 6.00 |  |

— patent US20230104283A1, “JNK INHIBITOR, AND PHARMACEUTICAL COMPOSITION AND USE THEREOF” (WUHAN LL SCIENCE AND TECHNOLOGY DEVELOPMENT CO. , LTD, priority 2019, published 2023)
